According to ChEMBL document CHEMBL1137726, “Novel 4-aryl-pyrido[1,2-c]pyrimidines with dual SSRI and 5-HT1A activity, part 1” (Eur J Med Chem, 2009):
Calls of active or inactive are those of the source. The calls are words filed in the database; no cut-off is given here.

Legend:
[1] = molecular target: T1, 5-hydroxytryptamine receptor 1A (Rattus norvegicus, UniProt P19327); assay: Displacement of [3H]8-OH-DPAT from 5HT1A receptor in rat brain membranes; assay type: cell membranes
T1 sequence (P19327 whole entry): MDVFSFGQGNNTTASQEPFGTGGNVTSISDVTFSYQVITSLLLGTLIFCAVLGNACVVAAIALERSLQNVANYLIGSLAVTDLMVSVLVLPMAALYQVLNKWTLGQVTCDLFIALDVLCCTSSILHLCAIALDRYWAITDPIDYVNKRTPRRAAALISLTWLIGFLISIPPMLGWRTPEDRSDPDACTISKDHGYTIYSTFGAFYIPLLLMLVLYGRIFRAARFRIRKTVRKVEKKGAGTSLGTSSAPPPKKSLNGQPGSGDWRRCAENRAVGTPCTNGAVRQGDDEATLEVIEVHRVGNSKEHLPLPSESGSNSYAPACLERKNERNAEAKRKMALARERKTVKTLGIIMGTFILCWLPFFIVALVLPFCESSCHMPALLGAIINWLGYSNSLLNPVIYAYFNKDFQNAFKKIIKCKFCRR

[2] = molecular target: Sodium-dependent serotonin transporter (Rattus norvegicus, UniProt P31652); assay: Displacement of [3H]citalopram from 5HTT in rat brain membranes; assay type: cell membranes
Sequence of Sodium-dependent serotonin transporter (P31652 whole entry): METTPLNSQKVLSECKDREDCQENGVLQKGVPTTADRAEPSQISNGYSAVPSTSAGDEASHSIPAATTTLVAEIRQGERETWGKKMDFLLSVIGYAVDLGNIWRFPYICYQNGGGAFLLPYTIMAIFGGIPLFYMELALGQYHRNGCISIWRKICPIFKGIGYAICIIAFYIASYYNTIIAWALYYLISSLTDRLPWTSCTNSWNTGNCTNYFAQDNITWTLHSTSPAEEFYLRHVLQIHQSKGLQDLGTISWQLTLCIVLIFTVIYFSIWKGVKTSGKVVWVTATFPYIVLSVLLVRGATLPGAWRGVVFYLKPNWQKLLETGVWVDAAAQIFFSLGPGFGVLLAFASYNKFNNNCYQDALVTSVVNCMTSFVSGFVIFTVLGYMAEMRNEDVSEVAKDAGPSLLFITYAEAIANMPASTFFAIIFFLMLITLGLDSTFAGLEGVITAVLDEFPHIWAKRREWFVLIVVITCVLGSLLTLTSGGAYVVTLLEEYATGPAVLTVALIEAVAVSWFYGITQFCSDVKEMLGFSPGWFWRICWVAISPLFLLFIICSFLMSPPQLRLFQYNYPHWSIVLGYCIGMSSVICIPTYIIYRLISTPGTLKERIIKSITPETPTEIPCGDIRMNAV

Mus musculus [3] = assay: Induction of hypothermia in Albino Swiss mouse assessed as change in body temperature pretreated for 30 mins at 5 mg/kg, ip measured 30 mins after drug dose; assay type: functional, organism-based; parameters: dose 5 mg/kg
Mus musculus [4] = assay: Induction of hypothermia in Albino Swiss mouse assessed as change in body temperature pretreated for 30 mins at 5 mg/kg, ip measured 60 mins after drug dose; assay type: functional, organism-based; parameters: dose 5 mg/kg
Mus musculus [5] = assay: Induction of hypothermia in Albino Swiss mouse assessed as change in body temperature pretreated for 30 mins at 5 mg/kg, ip measured 90 mins after drug dose; assay type: functional, organism-based; parameters: dose 5 mg/kg
Mus musculus [6] = assay: Induction of hypothermia in Albino Swiss mouse assessed as change in body temperature pretreated for 30 mins at 5 mg/kg, ip measured 120 mins after drug dose; assay type: functional, organism-based; parameters: dose 5 mg/kg
Mus musculus [7] = assay: Induction of hypothermia in Albino Swiss mouse assessed as change in body temperature pretreated for 30 mins at 10 mg/kg, ip measured 30 mins after drug dose; assay type: functional, organism-based; parameters: dose 10 mg/kg
Mus musculus [8] = assay: Induction of hypothermia in Albino Swiss mouse assessed as change in body temperature pretreated for 30 mins at 10 mg/kg, ip measured 60 mins after drug dose; assay type: functional, organism-based; parameters: dose 10 mg/kg
Mus musculus [9] = assay: Induction of hypothermia in Albino Swiss mouse assessed as change in body temperature pretreated for 30 mins at 10 mg/kg, ip measured 90 mins after drug dose; assay type: functional, organism-based; parameters: dose 10 mg/kg
Mus musculus [10] = assay: Induction of hypothermia in Albino Swiss mouse assessed as change in body temperature pretreated for 30 mins at 10 mg/kg, ip measured 120 mins after drug dose; assay type: functional, organism-based; parameters: dose 10 mg/kg
Mus musculus [11] = assay: Induction of hypothermia in Albino Swiss mouse assessed as change in body temperature pretreated for 30 mins at 20 mg/kg, ip measured 30 mins after drug dose; assay type: functional, organism-based; parameters: dose 20 mg/kg
Mus musculus [12] = assay: Induction of hypothermia in Albino Swiss mouse assessed as change in body temperature pretreated for 30 mins at 20 mg/kg, ip measured 60 mins after drug dose; assay type: functional, organism-based; parameters: dose 20 mg/kg
Mus musculus [13] = assay: Induction of hypothermia in Albino Swiss mouse assessed as change in body temperature pretreated for 30 mins at 20 mg/kg, ip measured 90 mins after drug dose; assay type: functional, organism-based; parameters: dose 20 mg/kg
Mus musculus [14] = assay: Induction of hypothermia in Albino Swiss mouse assessed as change in body temperature pretreated for 30 mins at 20 mg/kg, ip measured 120 mins after drug dose; assay type: functional, organism-based; parameters: dose 20 mg/kg
Mus musculus [15] = assay: Inhibition of 8-OH-DPAT-induced hypothermia in Albino Swiss mouse assessed as change in body temperature at 20 mg/kg, ip; assay type: functional, organism-based; parameters: dose 20 mg/kg
Mus musculus [16] = assay: Induction of hypothermia in 0.1 mg/kg WAY 100635 pretreated Albino Swiss mouse assessed as change in body temperature at 20 mg/kg, ip measured 30 mins after drug dose; assay type: functional, organism-based
Mus musculus [17] = assay: Induction of hypothermia in 0.1 mg/kg WAY 100635 pretreated Albino Swiss mouse assessed as change in body temperature at 20 mg/kg, ip measured 60 mins after drug dose; assay type: functional, organism-based
Mus musculus [18] = assay: Reduction of immobility time in Albino Swiss mouse at 20 mg/kg, ip pretreated for 30 mins by forced swimming test; assay type: functional
Mus musculus [19] = assay: Reduction of immobility time in Albino Swiss mouse at 10 mg/kg, ip pretreated for 30 mins by forced swimming test; assay type: functional
Mus musculus [20] = assay: Effect on spontaneous locomotor activity in Albino Swiss mouse assessed as number of light-beam crossings in actiometers pretreated for 30 mins at 10 mg/kg, ip measured during 6 mins post drug dose; assay type: functional; settings: route intraperitoneal
Mus musculus [21] = assay: Reduction of spontaneous locomotor activity in Albino Swiss mouse at 20 mg/kg, ip during 6 mins; assay type: functional, organism-based; parameters: dose 20 mg/kg
Mus musculus [22] = assay: Reduction of spontaneous locomotor activity in Albino Swiss mouse at 20 mg/kg, ip during 30 mins; assay type: functional, organism-based; parameters: dose 20 mg/kg
Mus musculus [23] = assay: Effect on spontaneous locomotor activity in Albino Swiss mouse assessed as number of light-beam crossings in actiometers pretreated for 30 mins at 10 mg/kg, ip measured during 30 mins post drug dose; assay type: functional; settings: route intraperitoneal
Mus musculus [24] = species: Mus musculus; settings: Albino Swiss, 10 mg/kg
Description: Induction of hypothermia in 0.1 mg/kg WAY 100635 pretreated Albino Swiss mouse assessed as change in body temperature at 10 mg/kg, ip measured 30 mins after drug dose

Mus musculus [25] = species: Mus musculus; settings: Albino Swiss, 10 mg/kg; remark: listed apart in the source
Description: Induction of hypothermia in 0.1 mg/kg WAY 100635 pretreated Albino Swiss mouse assessed as change in body temperature at 10 mg/kg, ip measured 60 mins after drug dose

Mus musculus [26] = assay: Reduction of immobility time in Albino Swiss mouse at 1 mg/kg, ip pretreated for 30 mins by forced swimming test; assay type: functional; parameters: scale not given: the % may be the effect or the level left; settings: route intraperitoneal
Mus musculus [27] = assay: Reduction of immobility time in Albino Swiss mouse at 2 mg/kg, ip pretreated for 30 mins by forced swimming test; assay type: functional; parameters: scale not given: the % may be the effect or the level left; settings: route intraperitoneal
Mus musculus [28] = assay: Effect on spontaneous locomotor activity in Albino Swiss mouse assessed as number of light-beam crossings in actiometers pretreated for 30 mins at 20 mg/kg, ip measured during 6 mins post drug dose; assay type: functional; settings: route intraperitoneal
Mus musculus [29] = assay: Effect on spontaneous locomotor activity in Albino Swiss mouse assessed as number of light-beam crossings in actiometers pretreated for 30 mins at 20 mg/kg, ip measured during 30 mins post drug dose; assay type: functional; settings: route intraperitoneal

Structure (SMILES) | Ki [1] [nM] | Ki [2] [nM] | deltaT (Mus musculus [3]) [°C] | deltaT (Mus musculus [4]) [°C] | deltaT (Mus musculus [5]) [°C] | deltaT (Mus musculus [6]) [°C] | deltaT (Mus musculus [7]) [°C] | deltaT (Mus musculus [8]) [°C] | deltaT (Mus musculus [9]) [°C] | deltaT (Mus musculus [10]) [°C] | deltaT (Mus musculus [11]) [°C] | deltaT (Mus musculus [12]) [°C] | deltaT (Mus musculus [13]) [°C] | deltaT (Mus musculus [14]) [°C] | deltaT (Mus musculus [16]) [°C] | deltaT (Mus musculus [17]) [°C] | also measured
COc1ccc(-c2c(=O)n(CCCCN3CCC(c4c[nH]c5ccccc45)CC3)c(=O)n3ccccc23)cc1 | 42.1 | 145 | -0.3 | -0.6 | -0.6 | -0.4 | -0.3 | -0.3 | -0.1 | -0.2 | -0.3 | -0.2 | -0.2 | -0.1 | – | – | Activity (Mus musculus [15]): inactive
Cc1ccc(-c2c(=O)n(CCCCN3CCC(c4c[nH]c5ccccc45)CC3)c(=O)n3ccccc23)cc1 | 5.8 | 0.3 | -0.4 | 0.2 | -0.1 | -0.1 | -0.5 | -0.3 | -0.1 | -0.1 | -1 | -0.8 | -0.7 | -0.8 | -0.3 | -0.2 | Activity (Mus musculus [18]): inactive; Activity (Mus musculus [19]): inactive
O=c1c(-c2ccccc2F)c2ccccn2c(=O)n1CCCCN1CCC(c2c[nH]c3ccccc23)CC1 | 4.8 | 0.7 | -0.5 | -0.3 | -0.1 | -0.1 | -0.8 | -0.2 | -0.3 | -0.1 | -1.1 | -0.8 | -0.7 | -0.7 | -0.3 | -0.1 | Activity (Mus musculus [19]; route intraperitoneal): 40%; Activity (Mus musculus [20]): 179; Activity (Mus musculus [21]): Active; Activity (Mus musculus [22]): Active; Activity (Mus musculus [23]): 399
O=c1c(-c2ccc(F)cc2)c2ccccn2c(=O)n1CCCCN1CCC(c2c[nH]c3ccccc23)CC1 | 9.2 | 37.6 | -0.4 | -0.3 | -0.4 | -0.3 | -1.2 | -1.2 | -1 | -0.8 | -1.2 | -1 | -0.8 | -0.6 | – | – | Activity (Mus musculus [18]; route intraperitoneal): 34%; Activity (Mus musculus [20]): 376; Activity (Mus musculus [23]): 965; deltaT (Mus musculus [24]): -0.8 °C; deltaT (Mus musculus [25]): -0.8 °C
COc1ccc(-c2c(=O)n(CCCCN3CCC(c4c[nH]c5ccc(OC)cc45)CC3)c(=O)n3ccccc23)cc1 | 78 | 129 | – | – | – | – | – | – | – | – | – | – | – | – | – | – | –
O=c1c(-c2ccc(Cl)cc2)c2ccccn2c(=O)n1CCCCN1CCC(c2c[nH]c3ccccc23)CC1 | 37.1 | 280 | -0.5 | -0.4 | -0.4 | -0.2 | -0.4 | -0.1 | -0.1 | -0.1 | -1.2 | -1 | -1.1 | -0.7 | -0.4 | -0.2 | –
COc1ccc2[nH]cc(C3CCN(CCCCn4c(=O)c(-c5ccccc5F)c5ccccn5c4=O)CC3)c2c1 | 16.7 | 59.3 | – | – | – | – | – | – | – | – | – | – | – | – | – | – | –
COc1ccc2[nH]cc(C3CCN(CCCCn4c(=O)c(-c5ccccc5)c5ccccn5c4=O)CC3)c2c1 | 52.3 | 129 | – | – | – | – | – | – | – | – | – | – | – | – | – | – | –
COc1ccc2[nH]cc(C3CCN(CCCCn4c(=O)c(-c5ccc(C)cc5)c5ccccn5c4=O)CC3)c2c1 | 59 | 223 | – | – | – | – | – | – | – | – | – | – | – | – | – | – | –
Br.CCCN(CCC)C1CCc2cccc(O)c2C1 (configuration not stated) | – | – | – | – | – | – | – | – | – | – | – | – | – | – | – | – | Activity (Mus musculus [26]): 45%; Activity (Mus musculus [27]): 57%
O=c1c(-c2ccccc2)c2ccccn2c(=O)n1CCCCN1CCC(c2c[nH]c3ccccc23)CC1 | 10.9 | 58.1 | -0.4 | -0.5 | -0.4 | -0.1 | -0.8 | -0.4 | -0.3 | -0.1 | -1.2 | -1.3 | -1.1 | -1.9 | -0.5 | -0.3 | Activity (Mus musculus [19]; route intraperitoneal): 29%; Activity (Mus musculus [28]): 409; Activity (Mus musculus [29]): 926
COc1ccc2[nH]cc(C3CCN(CCCCn4c(=O)c(-c5ccc(F)cc5)c5ccccn5c4=O)CC3)c2c1 | 34.6 | 54.6 | – | – | – | – | – | – | – | – | – | – | – | – | – | – | –
COc1ccc2[nH]cc(C3CCN(CCCCn4c(=O)c(-c5ccc(Cl)cc5)c5ccccn5c4=O)CC3)c2c1 | 41.1 | 251 | – | – | – | – | – | – | – | – | – | – | – | – | – | – | –
